Source: ChEMBL document CHEMBL4400572, “Small structural alterations greatly influence the membrane affinity of lipophilic ligands: Membrane interactions of bafilomycin A1 and its desmethyl derivative bearing 19F-labeling” (Bioorg Med Chem, 2019)

Legend:
[1] = n-Octanol/water partition coefficient, log P of the compound by UV-RP-HPLC analysis; type: physicochemical
[2] = Permeability of the compound assessed as molar fraction in donor well at 0.5 mM measured after 16 hrs by PAMPA; type: ADME; conditions: 500 µM
[3] = Permeability of the compound assessed as molar fraction in donor well at 0.5 mM measured after 2 hrs by PAMPA; type: ADME; conditions: 500 µM
[4] = Permeability of the compound assessed as molar fraction in acceptor well at 0.5 mM measured after 16 hrs by PAMPA; type: ADME; conditions: 500 µM
[5] = Permeability of the compound assessed as molar fraction in acceptor well at 0.5 mM measured after 2 hrs by PAMPA; type: ADME; conditions: 500 µM
[6] = Permeability of the compound assessed as molar fraction in membrane at 0.5 mM measured after 2 hrs by PAMPA; type: ADME; conditions: 500 µM
[7] = Permeability of the compound assessed as molar fraction in membrane at 0.5 mM measured after 16 hrs by PAMPA; type: ADME; conditions: 500 µM
[8] = Permeability of the compound assessed as molar fraction in donor well at 0.5 mM measured immediately by PAMPA; type: ADME; conditions: 500 µM
[9] = Permeability of the compound assessed as rate constant for partitioning to the membrane by PAMPA; type: ADME
[10] = Permeability of the compound assessed as rate constant for coming off the membrane by PAMPA; type: ADME
[11] = Permeability of the compound assessed as ratio of Kin to Kout by PAMPA; type: ADME
Lipid bilayer = assay: Binding affinity to POPC liposome membrane assessed as intrinsic dipolar splitting (D) at <1 mg by solid-state 19F NMR spectra analysis
[12] = Permeability of the compound by PAMPA
[13] = n-Octanol/water partition coefficient, log P of the compound by RP-HPLC analysis; type: physicochemical

Row | SMILES | logP [1] | permeability [2] [%] | permeability [3] [%] | permeability [4] [%] | permeability [5] [%] | permeability [6] [%] | permeability [7] [%] | permeability [8] [%] | K [9] [×10⁻⁵ /s] | K [10] [×10⁻⁷ /s] | Ratio [11] | D (Lipid bilayer) [kHz] | Papp [12] [×10⁻⁶ cm/s] | logP [13]
1 | Cc1ccc(C(=O)c2ccc(C)cc2)cc1 | 3.84 | – | – | – | – | – | – | – | – | – | – | – | – | –
2 | CO/C1=C\C(C)=C\[C@@H](C)[C@@H](O)[C@@H](C)C/C(C)=C/C=C/[C@H](OC)[C@@H]([C@@H](C)[C@@H](O)[C@H](C)[C@@]2(O)C[C@@H](O)[C@H](C)[C@@H](C(C)C)O2)OC1=O [BAFILOMYCIN A1] | 4.74 | 11 | 27.4 | -1.5 | 4.8 | 67.9 | 90.5 | 100 | 20.7 | 3.25 | 1170 | – | – | –
3 | CO/C1=C\C(C)=C\C[C@@H](O)CC/C(C)=C/C=C/[C@H](OC)[C@@H]([C@@H](C)[C@@H](O)[C@H](C)[C@@]2(O)C[C@@H](O)[C@H](C)[C@@H](C(F)(F)F)O2)OC1=O | 2.81 | 30.2 | 63.4 | 6.7 | 2.8 | 33.7 | 63.1 | 100 | 7.08 | 5.91 | 143 | 2.4 | – | –
4 | CO/C1=C\C(C)=C\[C@@H](C)[C@@H](O)[C@@H](C)C/C(C)=C/C=C/[C@H](OC)[C@@H]([C@@H](C)[C@@H](O)[C@H](C)[C@@]2(O)C[C@@H](O)[C@H](C)[C@@H](C(F)(F)F)O2)OC1=O | 4.54 | 16.6 | 52.2 | -0.2 | -0.5 | 48.3 | 83.7 | 100 | 9.55 | 2.47 | 393 | 2.9 | – | –
5 | Cn1c(=O)c2[nH]cnc2n(C)c1=O.O [THEOPHYLLINE] | – | – | – | – | – | – | – | – | – | – | – | – | 0.0848 | –
6 | Cc1c(Cl)cccc1Cl | – | – | – | – | – | – | – | – | – | – | – | – | – | 4.29
7 | OC/C=C/c1ccccc1 [CINNAMIC ALCOHOL] | – | – | – | – | – | – | – | – | – | – | – | – | – | 1.9
